Source: the COVID Moonshot data (paper PMC7615835)
Values joined by “and” are separate entries in the source; they are usually repeats but may differ in a detail not shown here. Equal entries are not always repeated.

biological target: SARS-CoV-2 Main Protease (SARS-CoV-2) (UniProt P0DTD1)

SMILES | IC50
O=C(NCCc1cccc(F)c1)C(c1cccnc1)N(C(=O)c1cocn1)c1cnc(C2CCC2)nc1 (stereo not drawn) | 69.1 µM
Cn1ccc2cncc(NC(=O)Cc3cccc(Cl)c3)c21 | 1.45 µM
O=C(Nc1cncc2ccccc12)C1(CNc2c[nH]c(=O)[nH]c2=O)CCOc2cc(Cl)ccc21 (stereo not drawn) | 5.36 µM
O=C(Cc1cc(Cl)cc(Nc2ccc(OC(F)(F)F)cc2Cl)c1)Nc1cncc2ccccc12 | 1.9 µM
Cc1cc(C)c(S(=O)(=O)N2CCCC2C(=O)Nc2ccc3[nH]c(=O)sc3c2)c(C)c1 (stereo not drawn) | > 99.5 µM
C=CC(=O)NCCC(=O)N(Cc1ccccc1)Cc1nc2ccccc2c(=O)[nH]1 | > 99.5 µM
O=C(NCCc1cccc(F)c1)C(c1cccnc1)N(C(=O)c1cocn1)c1ccc2ncsc2c1 (stereo not drawn) | 60.5 µM
CC1(CS(=O)(=O)N2Cc3ccc(Cl)cc3[C@H](C(=O)Nc3cncc4ccccc34)C2)CC1 (stereo in doubt) | < 0.05 µM and 0.0846 µM and 0.0459 µM
Cc1ccncc1NC(=O)Cc1cc(Cl)cc(NCC(C)(C)C#N)c1 | 36.5 µM
COCc1csc(N(C(=O)c2cocn2)C(C(=O)NCCc2cccc(F)c2)c2cccnc2)n1 (stereo not drawn) | > 99.5 µM
CC1(NC(=O)Cc2cccc(Cl)c2)CCNC1=O (stereo not drawn) | > 99.5 µM
C[C@@H]1CC[C@@]2(OC1)O[C@H]1C[C@H]3[C@@H]4CC=C5C[C@@H](O)CC[C@]5(C)[C@H]4CC[C@]3(C)[C@]1(O)[C@@H]2C (stereo in doubt) | > 99.5 µM
Cc1ccncc1NC(=O)Cc1cc(Cl)cc(-c2cnn(C)c2C(F)F)c1 | 19.3 µM
Cc1cc(Nc2cc(Cl)cc(CC(=O)Nc3cncc4ccccc34)c2)ncc1I | 2.35 µM
CC(C)CN1CC(C)(C(=O)Nc2cncc3ccccc23)c2cc(Cl)ccc2S1(=O)=O (stereo not drawn) | 0.153 µM
Cn1cc(CN2Cc3ccc(Cl)cc3C(C(=O)Nc3cncc4ccc(F)cc34)C2)nn1 (stereo not drawn) | 0.914 µM
CC(C)(C)OC(=O)NCCCNC(=O)C(c1cccnc1)N(C(=O)c1cocn1)c1ccc(C(C)(C)C)cc1 (stereo not drawn) | 3.39 µM
C=CC(=O)N(c1ccc(C(C)(C)C)cc1)C(C(=O)NCCOC)c1cccnc1 (stereo not drawn) | 55.8 µM
O=C(Cc1cc(Cl)cc(Nc2cc(F)c(Br)c(F)c2)c1)Nc1cncc2ccccc12 | 2.05 µM
O=C(Cc1cc(Cl)cc(Nc2cccc(Cl)c2Br)c1)Nc1cncc2ccccc12 | 1.94 µM
Cc1ccc(N(Cc2cccc(Cl)c2)C(=O)Cn2nnc3ccccc32)cc1 | 2.33 µM
Cc1cc(C)n2ncc(C(=O)Nc3ccc4ncsc4c3)c2n1 | > 99.5 µM
O=C(Nc1cncc2ccccc12)C1CN(S(=O)(=O)CC2(F)CC2)Cc2ccc(Cl)cc21 (stereo not drawn) | 0.176 µM
Cc1nc(Nc2cc(Cl)cc(CC(=O)Nc3cncc4ccccc34)c2)ccc1Br | 2.07 µM
Cc1ccncc1NC(=O)C(C)c1cccc(Cl)c1 (stereo not drawn) | 27.2 µM and 25.2 µM

SMILES | IC50
O=C1CCN(S(=O)(=O)c2cccc(F)c2)CC1 | > 99.5 µM
CCCc1cc2c(cc1S(=O)(=O)N1CCN(c3ccccc3OC)CC1)OCO2 | > 99.5 µM
CC(C)Oc1ccc(N(C(=O)c2cnc[nH]2)C(C(=O)NCCc2cccc(F)c2)c2cccnc2)cc1 (stereo not drawn) | 0.857 µM and 0.592 µM
COc1c(Cl)cccc1OCCNC(=O)c1cc(=O)[nH]c2ccccc12 | 6.39 µM
C[C@H](Nc1cc(Cl)cc(CC(=O)Nc2cncc3ccccc23)c1)c1ccc([N+](=O)[O-])cc1 (stereo in doubt) | 1.45 µM
O=C(Cc1cc(Cl)cc(Nc2cc(F)c(F)cc2Br)c1)Nc1cncc2ccccc12 | 2.16 µM
O=C(c1cc(=O)[nH]c2ccccc12)N1CCN(c2cccc(C(F)(F)F)c2)CC1 | 3.8 µM
CS(=O)(=O)N1CCc2ccc(CN3CCN(C(=O)CCl)CC3)cc2C1 | 40.2 µM
COC(=O)c1c(C)nn(C(=O)c2cccs2)c1-c1snnc1C | 5.72 µM
CCC(=O)Nc1ccc(N(Cc2cscn2)C(=O)Cn2nnc3ccccc32)cc1 | 25 µM
Cn1cnc(C(=O)N(c2ccc(C(C)(C)C)cc2)C(C(=O)NCCc2cccc(F)c2)c2cccnc2)n1 (stereo not drawn) | 74.2 µM
COC1(CS(=O)(=O)N2CC(C(=O)Nc3cncc4cc(S(C)(=O)=O)ccc34)c3cc(Cl)ccc3C2=O)CC1 (stereo not drawn) | 0.773 µM
CNC(=O)CN1Cc2ccc(Cl)cc2C2(CCN(c3cncc4ccc(F)cc34)C2=O)C1 (stereo not drawn) | 0.267 µM
O=C(Nc1cncc2ccncc12)[C@@H]1CCOc2cc(F)c(Cl)cc21 (stereo in doubt) | 0.397 µM and 0.849 µM
C=CC(=O)N(c1ccc(C(F)(F)F)cc1)C(C(=O)Nc1c(C)cccc1CC)c1cccnc1 (stereo not drawn) | 97.8 µM
CC(C)=CCC/C(C)=C/CC/C(C)=C/CC/C(C)=C/Cc1cc(O)cc2c1OC(=O)C2=C(C)C | > 99.5 µM
CN(C)c1ccc(N(Cc2cscn2)C(=O)Cn2nnc3ccccc32)cc1 | 4.85 µM
NS(=O)(=O)c1ccc(CNC(=O)CC2(C(=O)Nc3cncc4ccccc34)CCOc3ccc(Cl)cc32)cc1 (stereo not drawn) | 3.72 µM
CS(=O)(=O)CC1(C(=O)Nc2cncc3ccccc23)CCOc2ccc(Cl)cc21 (stereo not drawn) | 15.6 µM
O=C(Cc1cc(Cl)cc(Nc2ccc(SC(F)(F)F)cc2)c1)Nc1cncc2ccccc12 | 1.84 µM
CC(C)(C)c1csc(Nc2cc(Cl)cc(CC(=O)Nc3cncc4ccccc34)c2)n1 | 2.09 µM
O=C(Cc1ccc(Cl)c(F)c1)Nc1cncc2ccccc12 | 2.03 µM
O=S(=O)(c1cc2c(cc1OCc1ccccc1)OCO2)N1CCOCC1 | > 99.5 µM
O=C(Nc1cncc2ccccc12)C1CN(S(=O)(=O)NC2CCC2)Cc2ccc(Cl)cc21 (stereo not drawn) | 0.0999 µM and 0.132 µM and 0.127 µM
Cn1c(CNCC2(C(=O)Nc3cncc4ccccc34)CCOc3ccc(Cl)cc32)nc2c1c(=O)[nH]c(=O)n2C (stereo not drawn) | > 99.5 µM

SMILES | IC50
COC1(c2cccc(Cl)c2)CCCN(c2cncc3ccccc23)C1=O (stereo not drawn) | 2.08 µM
O=C(Cc1cc(Cl)cc(Nc2ccc3scnc3c2)c1)Nc1cncc2ccccc12 | 2.22 µM
CC(C)(C)c1ccc(N(C(=O)c2cnsn2)C(C(=O)NCCc2cccc(F)c2)c2cccnc2)cc1 (stereo not drawn) | 13.2 µM
O=C(Cc1cccc(Cl)c1)Nc1cnccc1C(F)(F)F | 18.2 µM and > 9.95 µM
Cn1cncc1C(=O)N1Cc2ccc(Cl)cc2C(C(=O)Nc2cncc3ccccc23)C1 (stereo not drawn) | 0.224 µM
CC1(CS(=O)(=O)N2Cc3ccc(Cl)cc3[C@@H](C(=O)Nc3cncc4ccccc34)C2)CC1 (stereo in doubt) | 4.58 µM
Cc1ccncc1NC(=O)Nc1cccc(C#N)c1 | > 99 µM
O=C(CN1CC(C(=O)Nc2cncc3cc(F)ccc23)c2cc(Cl)ccc2C1=O)NC1CCC1 (stereo not drawn) | 0.34 µM
Cc1ccncc1NC(=O)Cc1cc(Cl)cc(-c2ncc[nH]2)c1 | > 99.5 µM
COc1ccccc1N(C(=O)c1ccco1)C(C(=O)NCCc1cccc(F)c1)c1cccnc1 (stereo not drawn) | > 99.5 µM
O=C(c1cc(=O)[nH]c2ccccc12)N1CCN(c2ccccc2F)CC1 | 24 µM
COc1ccccc1OC1CN(C(=O)c2cc(=O)[nH]c3ccccc23)C1 | > 99.5 µM
COC(=O)c1cc(/C=c2\sc(=C(C#N)C#N)n(-c3cccc(C(F)(F)F)c3)c2=O)oc1C | > 99.5 µM
Cc1cc(C(=O)N2CCC(C3CCNC3)CC2)cc(C)c1OC(F)F (stereo not drawn) | > 99.5 µM
Cn1nc2c(c1C(=O)N(c1ccc(C(C)(C)C)cc1)C(C(=O)NCCc1cccc(F)c1)c1cccnc1)CS(=O)(=O)CC2 (stereo not drawn) | > 99.5 µM
N#CC1(CS(=O)(=O)N2Cc3ccc(Cl)cc3C(C(=O)Nc3cncc4cc(Cl)ccc34)C2)CC1 (stereo not drawn) | 0.283 µM
C=CC(=O)NCC(=O)N(Cc1ccccc1O)C[C@@H]1CCCO1 (stereo in doubt) | > 99.5 µM
N#Cc1ncc(Cl)cn1 | > 99.5 µM
CNC(=O)c1cc(Cl)cc(CC(=O)Nc2cnccc2C)c1 | 46.3 µM and 57.3 µM
O=C(Cc1cc(Cl)cc(NCc2ccc(I)cc2)c1)Nc1cncc2ccccc12 | 4.37 µM
O=C(Cc1cccc(Cl)c1)Nc1cncn1-c1ccccc1 | > 99.5 µM
O=C(Cc1cc(Cl)cc(N2CCCCC2)c1)Nc1cncc2ccccc12 | > 9.95 µM
CC(NC(=O)COc1ccc(C(N)=O)cc1)(C(=O)Nc1cncc2ccccc12)c1ccc(Cl)c(Cl)c1 (stereo not drawn) | 10.5 µM and 14.3 µM
COc1ccc(Cl)cc1OCCNC(=O)c1cc(=O)[nH]c2ccccc12 | > 99.5 µM
Nc1cccc2c(=O)[nH]n(-c3cc(Cl)cc(CC(=O)Nc4cncc5ccccc45)c3)c(=O)c12 | 5.92 µM

SMILES | IC50
CNC(=O)CN1Cc2ccc(Cl)cc2C(C(=O)Nc2cncc3cc(COC)ccc23)C1 (stereo not drawn) | 0.119 µM
O=C(Cc1cc(Cl)cc(Nc2ccc(Br)c([N+](=O)[O-])c2)c1)Nc1cncc2ccccc12 | 2.06 µM
Cc1ccc(C)c(S(=O)(=O)N2CCN(C(=O)CCl)CC2)c1 | 14.2 µM
CC(C)(CNC(=O)C1CNC(=O)N1)N1CCc2ccccc2C1 (stereo not drawn) | > 99.5 µM
NC(=O)c1c(Nc2cc(Cl)cc(CC(=O)Nc3cncc4ccccc34)c2)sc2c1CCCC2 | 2.43 µM
COc1ccccc1N1CCN(c2cc(Cl)cc(CC(=O)Nc3cncc4ccccc34)c2)CC1 | 2.98 µM
O=C(NCCc1cccc(F)c1)C(c1cccnc1)N(C(=O)c1cnc[nH]1)c1ccc2c(c1)COCC2 (stereo not drawn) | > 99 µM
COc1ccncc1NC(=O)Cc1cccc(Cl)c1 | 21.6 µM
O=C(c1cc(=O)[nH]c2ccccc12)N1CCN(Cc2cccc(C(F)(F)F)c2)CC1 | 34.2 µM
C=CC(=O)N(c1ccc(C(F)(F)F)cc1)C(C(=O)NCCc1cccc(F)c1)c1cncc(C)c1 (stereo not drawn) | 24.3 µM
O=CNc1ccc(C(=O)NC(c2ccccc2)C2CCOCC2)cc1 (stereo not drawn) | > 99.5 µM
CC[C@]1(c2ccc(Nc3cc(Cl)cc(CC(=O)Nc4cncc5ccccc45)c3)cc2)CCC(=O)NC1=O (stereo in doubt) | 1.91 µM
C=CC(=O)Nc1ccc(O)c(C(=O)NC[C@@H](O)c2ccc3ccccc3c2)c1 (stereo in doubt) | > 99.5 µM
O=C(NCCc1cccc(F)c1)C(c1cccnc1)N(C(=O)c1cnc[nH]1)c1ccc(Cl)cc1 (stereo not drawn) | > 99.5 µM
O=C(Cc1cc(Cl)cc(Nc2cccc(Br)c2)c1)Nc1cncc2ccccc12 | 2.07 µM
CCCc1cc2c(cc1S(=O)(=O)N1CCN(c3ncccn3)CC1)OCO2 | > 99.5 µM
COc1ccc(Cl)cc1N1C(=O)CN(Cc2cc(=O)[nH]c3ccccc23)C1=O | > 99.5 µM
O=C(NCC(=O)N1CCCC1c1nc2ccccc2[nH]1)C1CCCC1 (stereo not drawn) | > 99.5 µM
Cc1cnnn1-c1ccc(N(C(=O)c2cocn2)C(C(=O)NCCc2cccc(F)c2)c2cccnc2)cc1 (stereo not drawn) | 28.4 µM
O=C(Nc1cncc2ccccc12)C(NCC1CC1)c1ccc(Cl)c(Cl)c1 (stereo not drawn) | 1.75 µM
O=C(Cc1cc(Cl)cc(N2CCN(Cc3cccc(F)c3)CC2)c1)Nc1cncc2ccccc12 | 3.28 µM
O=C1CCC(c2ccc(N(C(=O)c3cocn3)C(C(=O)NCCc3cccc(F)c3)c3cccnc3)cc2)N1 (stereo not drawn) | > 99.5 µM
CC(C)NS(=O)(=O)N1Cc2ccc(Cl)cc2C(C(=O)Nc2cncc3ccccc23)C1 (stereo not drawn) | 0.195 µM
